The values that follow come from publication PMC12145828 (The Journal of Biological Chemistry, 2025).

Structures are written as SMILES. Where “and” joins values, the source holds several entries; their conditions need not be identical. Equal values may be shown once. Read-outs that look alike come from different tables or passages of the source.

Data set [1] deals with T1, human DP receptors (Homo sapiens, UniProt Q13258).
T1 construct: expressed in transfected cells
T1 sequence (Q13258 1-359): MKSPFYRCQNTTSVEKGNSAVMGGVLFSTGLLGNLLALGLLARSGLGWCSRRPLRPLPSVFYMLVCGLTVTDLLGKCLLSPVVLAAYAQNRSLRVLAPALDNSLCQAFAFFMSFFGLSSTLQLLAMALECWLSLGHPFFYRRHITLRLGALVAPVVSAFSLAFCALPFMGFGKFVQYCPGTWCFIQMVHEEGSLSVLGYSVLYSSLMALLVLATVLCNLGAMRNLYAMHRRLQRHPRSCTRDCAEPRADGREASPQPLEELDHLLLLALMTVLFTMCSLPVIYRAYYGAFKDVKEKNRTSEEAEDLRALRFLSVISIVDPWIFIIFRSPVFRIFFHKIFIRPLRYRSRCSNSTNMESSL
The data set can be described thus: competitive whole-cell [^3H]PGD2 radioligand binding assay in HEK-DP cells. The settings on record: for binding to DP receptors / competition with [^3H]PGD2: at least to a concentration of 100 nM (data not shown). As to the method:
The medium of HEK-DP cells cultured in 10-cm dishes was switched from DMEM containing 10% fetal bovine serum to Opti-MEM at 37 °C for 16 h containing antibiotics, as stated previously. Cells were trypsinized and then resuspended at 1.0 x 10^6 cells/sample in 100 μl of ice-cold 10 mM HEPES buffer (pH 7.4) containing 1 mM EDTA and 10 mM MnCl2 (Sigma–Aldrich). […] Samples were incubated for 2 h at 4 °C, and then the assay was terminated by filtration through Whatman GF/C glass filters (Whatman). Filters were then washed three to five times with ice-cold HEPES buffer, and radioactivity was measured by liquid scintillation counting ([20]).

For data set [2], the target named is T1, human DP receptors. The data set can be described thus: TCF/β-catenin-mediated luciferase reporter assay in HEK-DP cells. It is filed as cell-based. The settings on record: for effect on DP receptor-mediated activation of TCF/β-catenin signaling / Emax (fold), β-catenin/TCF-mediated luciferase activity / EC50 / Emax: HEK-DP cells; for effect on DP receptor-mediated activation of TCF/β-catenin signaling: up to 100 nM; for τ (TCF transcriptional activity), operational efficacy / Kd: Black/Leff operational model, partial agonists; for Kd: read-out: KA (TCF transcriptional activity), apparent affinity; for Emax (fold), β-catenin/TCF-mediated luciferase activity / Emax: 16 h; for Emax (fold), β-catenin/TCF-mediated luciferase activity: vehicle-treated control as 1.0; for EC50: 16 h treatment; for Emax: read-out: Emax of TCF/β-catenin activity as % of the PGD2 value. How it is done:
HEK-DP cells were cultured in 6-well plates and, prior to the experiments, medium was switched to Opti-MEM for 16 h with antibiotics, as stated previously. Cells were transiently transfected using HyliMax reagent (Dojindo) with 400 ng/well of either TOP flash or FOP flash reporter plasmids and 2 ng/well of pRL-CMV plasmid (Promega), as described previously ([20]). […] Cells were then lysed and assayed using a dual luciferase reporter assay system (Promega) according to the manufacturer's instructions with TECAN infinite M200 (TECAN). Data were normalized by calculating the ratios of firefly luciferase values to corresponding renilla luciferase scores and corrected for background activity by subtracting FOP flash scores from the corresponding TOP flash values, as described previously ([20]).
(§1) The equation "operational model-partial agonist" was performed using the results presented in Figure 2, as reported previously ([20]). The basal level was 0 (Fig. 2A; cAMP) or 1 (Fig. 2B, TCF), and Hill slopes were specified as 1. […] The total responses evoked by the precursor prostanoid and its metabolites were calculated using the formula below ([23]): Response=[A1]/KA1×Tau1+[A2]/KA2×Tau2/[A1]/KA1×(Tau1+1)+[A2]/KA2×(Tau2+1)+1×EffectMax
A general note: In a reporter assay the amount or activity of a reporter protein is the signal.

In data set [3] the target is T1, human DP receptors. The data set can be described thus: cAMP formation assay in HEK-DP cells. It is filed as cell-based. The settings on record: for effect on DP receptors in terms of cAMP accumulation: at least up to 100 nM; for τ (cAMP formation), operational efficacy / Kd / τ' (cAMP formation): Black/Leff operational model; for τ (cAMP formation), operational efficacy / Kd: partial agonists; for Kd: read-out: KA (cAMP formation), apparent affinity; for Emax: 60 min, normalized to 100 nM PGD2-stimulated cAMP as 100%; for EC50: 60 min treatment; for τ' (cAMP formation): full agonists, τ' = KA' x R. As to the method: HEK-DP cells were cultured in 6-well plates and, prior to the experiments, the medium was switched from DMEM to Opti-MEM (Thermo Fisher Scientific) containing 250 μg/ml geneticin, 200 μg/ml hygromycin B, and 100 μg/ml gentamicin for 16 h. […] Three hundred microliters of TE buffer (50 mM Tris–HCl, 4 mM EDTA [pH 7.5]) was added, and cells were scraped and transferred to microcentrifuge tubes. Samples were boiled for 8 min, placed on ice, and then centrifuged for 1 min at 16,000g. Between 5 and 25 μl of the supernatants representing approximately 10^4 cells was added to 50 μl of TE buffer containing [^3H]cAMP (PerkinElmer Life Science) and then to 100 μl of 0.06 mg/ml PKA (Sigma–Aldrich; #P5511). The mixture was vortexed and incubated on ice for 120 min. Samples were added to 100 μl of TE buffer containing 2% of bovine serum albumin and 26 mg/ml of powdered activated charcoal (Sigma–Aldrich; #C7606). After vortexing and centrifugation at 16,000g for 5 min, 200 μl of the supernatants were transferred to vials for liquid scintillation.
as §1
A general note: cAMP levels reflect the balance of adenylyl cyclase and phosphodiesterase activity.

The conditions of data set [4]: cited from earlier work.
For the next data set, the system named is platelets. Also on record: method as in PMID 17452035. The settings on record: collagen-induced platelet aggregation; cited from earlier work.

With `CCCCC/C=C/C=C1/C(=O)C[C@H](O)[C@@H]1C/C=C\CCCC(=O)O` [15-d-PGD2, 15-deoxy-Δ^12,14-PGD2], the “binding to DP receptors / competition with [^3H]PGD2” value at human DP receptors [1] is given as “could not bind to DP receptors”. For the same compound, the “effect on DP receptor-mediated activation of TCF/β-catenin signaling” value at human DP receptors [2] is on record as “little effect”. The “effect on DP receptors in terms of cAMP accumulation” value at human DP receptors [3] (HEK-DP cells) is listed as “little effects”.

In the case of `CCCCC/C=C\C=C1\C(=O)C=C[C@@H]1C/C=C\CCCC(=O)O` [15-d-PGJ2, 15-deoxy-Δ^12,14-PGJ2], at human DP receptors [1], the “binding to DP receptors / competition with [^3H]PGD2” value is “could not bind to DP receptors”. Further, the “effect on DP receptor-mediated activation of TCF/β-catenin signaling” value on human DP receptors [2] was “little effect”. The “effect on DP receptors in terms of cAMP accumulation” value on human DP receptors [3] (HEK-DP cells) was “little effects”.

Usually EC50 stands for the concentration at which the effect is half-maximal. As for `CCCCCC(=O)CC[C@H]1C(=O)C[C@H](O)[C@@H]1C/C=C\CCCC(=O)O` [DK-PGD2, 13,14-dihydro-15-keto PGD2], at human DP receptors [2], the “τ (TCF transcriptional activity), operational efficacy” value is reported as 0.21; the Kd was found to be 18.9 nM; the “Emax (fold), β-catenin/TCF-mediated luciferase activity” value is given as “about 1.28 fold”; the EC50 was 34.7 nM. The Emax at human DP receptors [2] was around 40%. At human DP receptors [3], the “τ (cAMP formation), operational efficacy” value amounted to 0.17 and the Kd is 15 nM. In addition, on human DP receptors [3] (HEK-DP cells), the Emax was around 14%; the 50% effective concentration (EC50) was ~62.4 nM and 62.4 nM.

A word on the IC50: it is the midpoint of a concentration-inhibition curve. Low readings indicate greater potency, high ones weaker potency. For the compound `CCCCC[C@H](O)/C=C/[C@H]1C(=O)C[C@H](O)[C@@H]1C/C=C\CCCC(=O)O` [PGD2, Prostaglandin D2], the half-life in blood is given as 0.9 min in data set [4] (blood) and 30 min in data set [4] (printed as blood). For the same compound, the half-life in plasma in data set [4] (plasma) is reported as 30 min. The compound further gave a half-maximal inhibitory concentration (IC50) on human DP receptors [1] of 2.48 nM. For the same compound, the EC50 on human DP receptors [2] is ~0.08 nM and 0.0892 nM; on human DP receptors [3] (HEK-DP cells), ~0.3 nM and 0.301 nM. The “τ' (cAMP formation)” value on human DP receptors [3] was found to be 11.48. Moreover, on human DP receptors [3] (HEK-DP cells), the Emax amounted to 100%.

Turning to `CCCCC[C@H](O)/C=C/[C@H]1C(=O)C=C[C@@H]1C/C=C\CCCC(=O)O` [PGJ2, prostaglandin J2], on human DP receptors [1], the IC50 amounted to 5.11 nM. Moreover, the “potency of inhibiting platelet aggregation, times lower than that of PGD2” value in the data set with platelets was 13 times. In addition, the concentration giving a half-maximal response (EC50) at human DP receptors [2] was ~0.08 nM and 0.0758 nM; on human DP receptors [3] (HEK-DP cells) it was ~0.05 nM and 0.0513 nM. Besides, the “τ' (cAMP formation)” value on human DP receptors [3] came to 86.76. Also, the “time-dependent cAMP formation compared with PGD2, with IBMX pretreatment” value on human DP receptors [3] (HEK-DP cells, 0.3 nM ligand, 0.1 mg/ml IBMX for 25 min) is reported as “significantly more cAMP from 5 to 60 min compared with PGD2”. Also, the “time-dependent cAMP formation compared with PGD2, without IBMX pretreatment” value at human DP receptors [3] (HEK-DP cells, 0.3 nM ligand, no IBMX) is on record as “significantly form more cAMP from 10 to 30 min compared with PGD2”. Besides, on human DP receptors [3] (HEK-DP cells), the Emax stood at 102 ± 20.2%.

Consider `CCCCCC(O)CC=C1C(=O)C=CC1CC=CCCCC(=O)O` (stereo not shown) [Δ^12-PGJ2], for which, at human DP receptors [2], the “τ (TCF transcriptional activity), operational efficacy” value is on record as 2.44; the Kd was 29.8 nM; the “Emax (fold), β-catenin/TCF-mediated luciferase activity” value is 2.21 fold; the concentration giving a half-maximal response (EC50) turned out to be 8.96 nM. At human DP receptors [2], the Emax was around 70%. Further, on human DP receptors [3], the “τ (cAMP formation), operational efficacy” value was determined as 4.08 and the Kd stood at 117 nM. Also, at human DP receptors [3] (HEK-DP cells), the Emax is around 67%; the EC50 is ~28.9 nM and 28.9 nM.
